Columns and labels:
Format in all cases: in vivo, mouse
IL-1β protein = IL-1β protein release from muscularis extracts (ELISA)
Procedure: Protein and Nitric Oxide Determinations. The small bowel of control and mice subjected to intestinal manipulation was removed under sterile conditions, 4 or 24 hours post-operatively, leaving the colon in situ. The small intestine was transferred to a beaker containing chilled Hanks balanced salt solution (Sigma, St. Louis, Mo.) with 200 U/ml penicillin G and 200 μg/ml streptomycin (HBSS), the lumen flushed, and the tissue transferred to a second beaker of HBSS. The muscularis was harvested as described above for real time RT-PCR. Tissues were maintained under sterile conditions at 3 to 5° C. throughout the harvesting procedure. Isolated muscularis was blotted onto sterile gauze, and the wet weight determined to obtain aliquots of 40 to 60 mg. Tissue aliquots were washed twice in HBSS, transferred to 35 mm well culture plates containing 3 ml of serum-free DMEM containing penicillin/streptomycin, and incubated for 24 hrs in a humidified 5% CO2 incubator at 37° C. Pharmacological agents added to the culture medium were filter sterilized prior to use.
After the incubation period, the muscle tissue was pelleted, and aliquots of culture medium were frozen in liquid nitrogen and stored at −80° C. The levels of IL-6, IL-1β, PGE2, and IL-10 proteins secreted into the culture medium were determined using commercially available ELISA kits (R&D Systems, Minneapolis, Minn.) according to the manufacturer's instructions. Nitric oxide (NO) released into the culture medium was estimated by measuring the stable end products of NO metabolism. Nitrate/nitrate levels were measured 24 hrs postoperatively using commercially available test kit (Oxford Biomedical Research, Oxford, Mich.) and quantified according to the manufacturer's directions. In this assay system, nitrate is reduced to nitrite using granulated cadmium, and the total nitrite concentration is subsequently measured using the Griess reaction. All measurements were normalized to tissue wet weight.

COX-2 mRNA = COX-2 mRNA in muscularis after IM (real time RT-PCR)
Procedure: (§1) Pro- and anti-inflammatory gene expression was determined by real time RT-PCR. The small intestinal muscularis externa was collected at 4 time points (3, 6, 12, and 24 hr) postoperatively and snap frozen in liquid nitrogen. Total RNA extraction was performed using the guanidium-thiocyanate phenol-chloroform extraction method as described in Eskandari et al. (Id.) RNA pellets were resuspended in RNA-secure resuspension solution (Ambion Inc., Austin, Tex.), followed by removal of potential contaminating DNA by treatment with DNase I (DNA-Free Kit, Ambion Inc., Austin, Tex.). Equal aliquots (5 μg) of total RNA from each sample were quantified by spectrophotometry (wavelength […]). Peak mRNA expression was quantified in duplicate by SYBR Green two-step, real-time RT-PCR. β-actin was used as the endogenous reference. Aliquoted RNA (40 ng) was subjected to first-strand complementary DNA (cDNA) synthesis using random hexamers (PE applied Biosystems, Foster City, Calif.) and Super Script II (Life Technologies, Rockville, Md.). Primers were taken from the literature or designed according to published sequences (Table 3). PCR reaction mixture was prepared using SYBR Green PCR Core Reagents (PE Applied Biosystems). Each sample was estimated in duplicate using the conditions recommended by the manufacturer. Real-time PCR data were plotted as the ΔRn fluorescence signal versus the cycle number. An arbitrary threshold was set to the midlinear portion of the log ΔRn cycle plot. The threshold cycle (CT) is defined as the cycle number at which the ΔRn, crosses this threshold. Quantification of mRNA expression was normalized to β-actin and calculated relative to control using the comparative CT method.
(§2) To exclude PCR amplification of contaminating genomic DNA, RT-negative controls (samples containing RNA which was not reverse transcribed) were included in each PCR reaction. Melting curve analyses were performed for each reaction to ensure amplification of specific product. […] PCR amplification efficiency of each target cDNA was measured by determining the colinearity of serial dilutions. […]

iNOS mRNA = iNOS mRNA in muscularis after IM (real time RT-PCR); settings: for iNOS expression, fold increase: naive mice
Procedure: as §1, §2

## [C-]#[O+] [CO, carbon monoxide]
IL-1β protein; IM + CO vs IM, 24 hr after surgery
  IL-1β protein release: significantly attenuated
IL-1β protein; IM + CO vs IM, extracts harvested 24 hr after surgery
  reduction of IL-1β protein release: 60%
IL-1β protein; control mice treated with CO
  IL-1β protein: no IL-1β protein could be detected
COX-2 mRNA; IM + CO, 3 or 6 hr time points
  IM-induced COX-2 gene expression: no effect
COX-2 mRNA; control animals, CO inhalation, 3 hr post-treatment
  COX-2 mRNA expression: significantly increased
COX-2 mRNA; unoperated control mice, CO inhalation alone, 3 hr
  induction of COX-2 message: 2.5 fold
iNOS mRNA; naive mice exposed to CO
  iNOS expression: no effect
iNOS mRNA; CO 3 hr
  iNOS expression, fold increase: 1.04±0.19 fold
iNOS mRNA; CO 6 hr
  iNOS expression, fold increase: 1.26±0.19 fold
